From patent US9521846B2, “Template-fixed peptidomimetics with antimicrobial activity” (priority 2006, dated 2016)
In brackets after ≈: the same amount, converted by molar mass. Non-standard residues stand in square brackets, D forms with d. Residues, ends and D or L forms follow the SMILES beside them. hSer = N[C@@H](CCO)C(=O)O; Dab = NCC[C@H](N)C(=O)O

Experiments:
[1] = tested on: Pseudomonas aeruginosa P1021913; type: cell-based; conditions: P1021913
Summary of the method: (§1)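 Peptides were serially diluted two-fold in MH broth containing 0.02% BSA and combined 1:1 with bacterial suspension adjusted to roughly 10^6 CFU/ml, following a modified NCCLS microdilution protocol.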

[2] = tested on: Pseudomonas aeruginosa P8191900; type: cell-based; conditions: P8191900
Summary of the method: as §1

[3] = tested on: Pseudomonas aeruginosa IMP 1 Livermore 3140; type: cell-based; conditions: IMP 1 Livermore 3140
Summary of the method: as §1

[4] = tested on: Pseudomonas aeruginosa P1021903; type: cell-based; conditions: P1021903
Summary of the method: as §1

[5] = tested on: P. aeruginosa
[6] = Plasma stability, rat plasma; type: in vitro ADME
[7] = tested on: HELA cells (Acc57); assay: Cytotoxicity assay, MTT reduction (LC 50, GI 50); type: cell-based
Summary of the method: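 HeLa cells seeded at 7.0×10^3 cells/well, grown 24 h, then exposed to peptides at 12.5, 25 and 50 μM in triplicate for 48 h at 37 °C; MTT (0.5 mg/ml, 2 h), A595 read. Percent growth was taken relative to time-zero plates; LC50 and GI50 were interpolated by linear trend at −50% and 50% growth.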

[8] = Plasma stability, human plasma; type: in vitro ADME
[9] = tested on: human red blood cells (hRBC); assay: Hemolysis; type: cell-based; conditions: 100
[10] = tested on: P. aeruginosa ATCC 27853; type: cell-based, Pseudomonas aeruginosa; conditions: ATCC 27853
Summary of the method: as §1

CC[C@H](C)[C@@H]1NC(=O)[C@H](Cc2c[nH]c3ccccc23)NC(=O)[C@H]([C@@H](C)O)NC(=O)[C@@H]2CCCN2C(=O)[C@H]2CCCN2C(=O)[C@H](CCCCN)NC(=O)[C@H](C)NC(=O)[C@H](CCN)NC(=O)[C@H](CCN)NC(=O)[C@H](Cc2c[nH]c3ccccc23)NC(=O)[C@H](CCN)NC(=O)[C@H](CCN)NC(=O)[C@H](CCCCN)NC(=O)[C@H](CCN)NC1=O [Example 28] (cyclo(TWI[Dab]K[Dab][Dab]W[Dab][Dab]AK[dP]P))
MIC P. aeruginosa P1021913 [1]: 0.16 µg/mL (≈ 0.0994 µM) | MIC P. aeruginosa P8191900 [2]: 0.10 µg/mL (≈ 0.0622 µM) | MIC P. aeruginosa IMP1 Livermore 3140 [3]: 0.24 µg/mL (≈ 0.149 µM) | MIC P. aeruginosa P1021903 [4]: 0.07 µg/mL (≈ 0.0435 µM) | Average MIC [5]: 0.12 µg/mL | Stability rat Plasma t1/2 [6]: 300 min | Cytotoxicity GI50 Hela cells [7]: 50 µM | Stability human Plasma t1/2 [8]: 300 min | Hemolysis at 100 μg/ml [9]: 0.1% | MIC P. aeruginosa ATCC 27853 [10]: 0.04 µg/mL (≈ 0.0249 µM)

CC[C@H](C)[C@@H]1NC(=O)[C@H](Cc2c[nH]c3ccccc23)NC(=O)[C@H]([C@@H](C)O)NC(=O)[C@@H]2CCCN2C(=O)[C@H]2CCCN2C(=O)[C@H](CCN)NC(=O)[C@H](C)NC(=O)[C@H](CCN)NC(=O)[C@H](CCN)NC(=O)[C@H](Cc2c[nH]c3ccccc23)NC(=O)[C@H](CCN)NC(=O)[C@H](CCN)NC(=O)[C@H](CCCCN)NC(=O)[C@H](CCC(N)=O)NC1=O [Example 29] (cyclo(TWIQK[Dab][Dab]W[Dab][Dab]A[Dab][dP]P))
MIC P. aeruginosa P1021913 [1]: 0.21 µg/mL (≈ 0.131 µM) | MIC P. aeruginosa P8191900 [2]: 0.13 µg/mL (≈ 0.0808 µM) | MIC P. aeruginosa IMP1 Livermore 3140 [3]: 0.40 µg/mL (≈ 0.249 µM) | MIC P. aeruginosa P1021903 [4]: 0.13 µg/mL (≈ 0.0808 µM) | Average MIC [5]: 0.19 µg/mL | Stability rat Plasma t1/2 [6]: 300 min | Cytotoxicity GI50 Hela cells [7]: 50 µM | Stability human Plasma t1/2 [8]: 300 min | Hemolysis at 100 μg/ml [9]: 0.5% | MIC P. aeruginosa ATCC 27853 [10]: 0.09 µg/mL (≈ 0.0559 µM)

CC(C)[C@@H]1NC(=O)[C@H](Cc2c[nH]c3ccccc23)NC(=O)[C@H]([C@@H](C)O)NC(=O)[C@@H]2CCCN2C(=O)[C@H]2CCCN2C(=O)[C@H](CCN)NC(=O)[C@H](C)NC(=O)[C@H](CCN)NC(=O)[C@H](CCN)NC(=O)[C@H](Cc2c[nH]c3ccccc23)NC(=O)[C@H](CCN)NC(=O)[C@H](CCN)NC(=O)[C@H](CCCCN)NC(=O)[C@H](CCN)NC1=O [Example 32] (cyclo(TWV[Dab]K[Dab][Dab]W[Dab][Dab]A[Dab][dP]P))
MIC P. aeruginosa P1021913 [1]: 0.10 µg/mL (≈ 0.0638 µM) | MIC P. aeruginosa P8191900 [2]: 0.05 µg/mL (≈ 0.0319 µM) | MIC P. aeruginosa IMP1 Livermore 3140 [3]: 0.22 µg/mL (≈ 0.14 µM) | MIC P. aeruginosa P1021903 [4]: 0.05 µg/mL (≈ 0.0319 µM) | Average MIC [5]: 0.09 µg/mL | Stability rat Plasma t1/2 [6]: 300 min | Cytotoxicity GI50 Hela cells [7]: 50 µM | Stability human Plasma t1/2 [8]: 300 min | Hemolysis at 100 μg/ml [9]: 0% | MIC P. aeruginosa ATCC 27853 [10]: 0.02 µg/mL (≈ 0.0128 µM)

CC[C@H](C)[C@@H]1NC(=O)[C@H](Cc2c[nH]c3ccccc23)NC(=O)[C@H]([C@@H](C)O)NC(=O)[C@@H]2CCCN2C(=O)[C@H]2CCCN2C(=O)[C@H](CCN)NC(=O)[C@H](CCO)NC(=O)[C@H](CCN)NC(=O)[C@H](CCN)NC(=O)[C@H](Cc2c[nH]c3ccccc23)NC(=O)[C@H](CCN)NC(=O)[C@H](CCN)NC(=O)[C@H](CCCCN)NC(=O)[C@H](CCN)NC1=O [Example 35] (cyclo(TWI[Dab]K[Dab][Dab]W[Dab][Dab][hSer][Dab][dP]P))
MIC P. aeruginosa P1021913 [1]: 0.24 µg/mL (≈ 0.149 µM) | MIC P. aeruginosa P8191900 [2]: 0.22 µg/mL (≈ 0.137 µM) | MIC P. aeruginosa IMP1 Livermore 3140 [3]: 0.31 µg/mL (≈ 0.192 µM) | MIC P. aeruginosa P1021903 [4]: 0.10 µg/mL (≈ 0.0621 µM) | Average MIC [5]: 0.18 µg/mL | Stability rat Plasma t1/2 [6]: 300 min | Cytotoxicity GI50 Hela cells [7]: 48 µM | Stability human Plasma t1/2 [8]: 300 min | Hemolysis at 100 μg/ml [9]: 0.2% | MIC P. aeruginosa ATCC 27853 [10]: 0.05 µg/mL (≈ 0.031 µM)
